Laboratory results from the supplement of paper PMC13380429.

What was measured:
Details in all cases: 72 h
Calu-3 [1] = experiment: relative viability EC50 (midpoint between 100% and the lowest measured viability); higher = less toxic
Vero E6 [2] = experiment: as above
U2OS [3] = experiment: as above
Caco-2 [4] = experiment: as above
HepG2 [5] = experiment: as above
Calu-3 [6] = experiment: drug sensitivity score (DSS) for viability; higher = more toxic; extreme values may be limits of the assay
Vero E6 [7] = experiment: as above
U2OS [8] = experiment: as above
Caco-2 [9] = experiment: as above
HepG2 [10] = experiment: as above
Calu-3 [11] = experiment: cell viability relative to DMSO; higher = less toxic
Vero E6 [12] = experiment: as above
U2OS [13] = experiment: as above
Caco-2 [14] = experiment: as above
HepG2 [15] = experiment: as above

SMILES | relative viability EC50 (Calu-3 [1]) [µM] | relative viability EC50 (Vero E6 [2]) [µM] | relative viability EC50 (U2OS [3]) [µM] | relative viability EC50 (Caco-2 [4]) [µM] | relative viability EC50 (HepG2 [5]) [µM] | drug sensitivity score (Calu-3 [6]) | drug sensitivity score (Vero E6 [7]) | drug sensitivity score (U2OS [8]) | drug sensitivity score (Caco-2 [9]) | drug sensitivity score (HepG2 [10]) | cell viability (Calu-3 [11]; 1 nM) [%] | cell viability (Calu-3 [11]; 10 nM) [%] | cell viability (Calu-3 [11]; 100 nM) [%] | cell viability (Calu-3 [11]; 1000 nM) [%] | cell viability (Calu-3 [11]; 10000 nM) [%] | cell viability (Vero E6 [12]; 1 nM) [%] | cell viability (Vero E6 [12]; 10 nM) [%] | cell viability (Vero E6 [12]; 100 nM) [%] | cell viability (Vero E6 [12]; 1000 nM) [%] | cell viability (Vero E6 [12]; 10000 nM) [%] | cell viability (U2OS [13]; 1 nM) [%] | cell viability (U2OS [13]; 10 nM) [%] | cell viability (U2OS [13]; 100 nM) [%] | cell viability (U2OS [13]; 1000 nM) [%] | cell viability (U2OS [13]; 10000 nM) [%] | cell viability (Caco-2 [14]; 1 nM) [%] | cell viability (Caco-2 [14]; 10 nM) [%] | cell viability (Caco-2 [14]; 100 nM) [%] | cell viability (Caco-2 [14]; 1000 nM) [%] | cell viability (Caco-2 [14]; 10000 nM) [%] | cell viability (HepG2 [15]; 1 nM) [%] | cell viability (HepG2 [15]; 10 nM) [%] | cell viability (HepG2 [15]; 100 nM) [%] | cell viability (HepG2 [15]; 1000 nM) [%] | cell viability (HepG2 [15]; 10000 nM) [%]
CCCCCCCCN=c1ccn(CCCCCCCCCCn2ccc(=NCCCCCCCC)cc2)cc1 [octenidine] | 3.07 | 1.91 | 2.31 | 1.65 | 1.27 | 5.7 | 8.2 | 7 | 8.9 | 10.2 | 106 | 101 | 98.6 | 98.6 | 0.7 | 96.8 | 94.7 | 92.5 | 83.7 | 0.1 | 95.5 | 104 | 95.4 | 89.9 | 2.7 | 98.7 | 97.5 | 101 | 78 | 1 | 89.6 | 93.4 | 102 | 65.6 | 2.6
COC(=O)N1CCN(Cc2cccc(NC(=O)Nc3ccc(C)nc3)c2F)CC1 [omecamtiv-mecarbil] | > 10 | > 10 | > 10 | > 10 | > 10 | 0 | 0 | 0 | 0 | 0 | 92.4 | 94.4 | 107 | 97.4 | 99.9 | 105 | 100 | 104 | 101 | 99.1 | 97 | 101 | 93.3 | 99 | 97.4 | 93 | 89.7 | 95.3 | 96.3 | 87 | 105 | 96.1 | 100 | 98.5 | 97.1
COc1ccc2[nH]c([S+]([O-])Cc3ncc(C)c(OC)c3C)nc2c1 (stereo not given) [omeprazole-magnesium] | > 10 | > 10 | > 10 | > 10 | > 10 | 0 | 0 | 0 | 0 | 0 | 93.3 | 104 | 98.7 | 95.5 | 98.9 | 102 | 105 | 96.2 | 96.3 | 110 | 96.6 | 97.3 | 102 | 94.3 | 96 | 90.7 | 72.4 | 100 | 97.4 | 107 | 87.7 | 98.4 | 86.3 | 99.7 | 95.1
COc1ccc2[nH]c([S+]([O-])Cc3ncc(C)c(OC)c3C)nc2c1 (stereo not given) [omeprazole] | > 10 | > 10 | > 10 | > 10 | > 10 | 0 | 0 | 0 | 0 | 0 | 115 | 94.3 | 103 | 104 | 113 | 98.5 | 106 | 102 | 107 | 103 | 106 | 98.4 | 101 | 104 | 98.6 | 104 | 92.2 | 103 | 99 | 95 | 102 | 96.6 | 99.4 | 99.5 | 97
Cc1[nH]c(/C=C2\C(=O)Nc3ccccc32)c(C)c1CCC(=O)O [orantinib] | > 10 | > 10 | > 10 | > 10 | > 10 | 0 | 0 | 0 | 0 | 0 | 98.8 | 104 | 107 | 106 | 99.2 | 107 | 103 | 103 | 96.2 | 98.1 | 98.1 | 94.3 | 101 | 99.1 | 98.4 | 101 | 96.9 | 102 | 104 | 97.5 | 98.3 | 103 | 106 | 98.7 | 100
Cc1nc2n(c(=O)c1CCN1CCC(c3noc4cc(F)ccc34)CC1)CCCC2O (stereo not given) [paliperidone] | > 10 | > 10 | > 10 | > 10 | > 10 | 0 | 0 | 0 | 0 | 0 | 104 | 104 | 93.2 | 100 | 102 | 113 | 106 | 109 | 103 | 92.4 | 99.5 | 103 | 97 | 101 | 99.9 | 93.6 | 106 | 90.7 | 104 | 118 | 107 | 104 | 108 | 95 | 100
Cc1cccc(Nc2cc(Cl)nc(SCC(=O)O)n2)c1C [pirinixic-acid] | > 10 | > 10 | > 10 | > 10 | > 10 | 0 | 0 | 0 | 0 | 0 | 99.9 | 102 | 93.7 | 114 | 97.4 | 100 | 95.3 | 98.8 | 95.9 | 100 | 103 | 104 | 95.7 | 102 | 97.1 | 90 | 95.2 | 98.8 | 98.1 | 87.2 | 98.8 | 99.4 | 94.8 | 99.2 | 101
CC(C)(C)C(=O)NCCCC(=O)O [pivagabine] | > 10 | > 10 | > 10 | > 10 | > 10 | 0 | 0 | 0 | 0 | 0 | 101 | 110 | 98.3 | 99.1 | 106 | 95.1 | 99.2 | 96.4 | 98.3 | 91.7 | 101 | 105 | 98.4 | 101 | 102 | 92.3 | 97.2 | 88.8 | 95.9 | 92.2 | 99 | 111 | 98.5 | 106 | 108
CC(C(=O)O)c1ccc2c(c1)Cc1cccnc1O2 (stereo not given) [pranoprofen] | > 10 | > 10 | > 10 | > 10 | > 10 | 0 | 0 | 0 | 0 | 0 | 97.5 | 92.9 | 97.1 | 100 | 108 | 96.2 | 96.5 | 98.4 | 100 | 105 | 104 | 99.1 | 95.2 | 104 | 106 | 88.3 | 86.7 | 89.5 | 95.3 | 102 | 95.8 | 103 | 94.1 | 104 | 111
CC(=O)[C@H]1CC[C@H]2[C@@H]3CCC4=CC(=O)CC[C@]4(C)[C@H]3CC[C@]12C [progesterone] | > 10 | > 10 | > 10 | > 10 | > 10 | 0 | 0 | 0 | 1.3 | 0 | 95 | 98.4 | 87.2 | 94.5 | 92 | 92 | 108 | 91.3 | 96.8 | 110 | 100 | 98 | 101 | 100 | 96.8 | 97.4 | 98.8 | 98.4 | 87.2 | 82.9 | 102 | 99.9 | 102 | 96.4 | 95.6
COc1ccccc1OCC(O)CN1CCN(CC(=O)Nc2c(C)cccc2C)CC1 (stereo not given) [ranolazine] | > 10 | > 10 | > 10 | > 10 | > 10 | 0 | 0 | 0 | 0 | 0 | 95 | 91.8 | 102 | 105 | 105 | 90.5 | 97.3 | 89.5 | 90.7 | 104 | 98.6 | 93.4 | 102 | 96.1 | 102 | 100 | 96.9 | 106 | 99.2 | 99.1 | 97.5 | 97.9 | 93 | 96.7 | 102
CCOc1ccccc1OC(c1ccccc1)C1CNCCO1 (stereo not given) [reboxetine] | > 10 | > 10 | > 10 | > 10 | > 10 | 0 | 0 | 0 | 0 | 0 | 107 | 96.5 | 99.4 | 104 | 94.3 | 102 | 102 | 102 | 98.4 | 95.6 | 101 | 101 | 98.8 | 101 | 104 | 104 | 97.9 | 97.1 | 104 | 104 | 105 | 121 | 95.5 | 106 | 102
O=C(Nc1c(Cl)cncc1Cl)c1ccc(OC(F)F)c(OCC2CC2)c1 [roflumilast] | > 10 | > 10 | > 10 | > 10 | > 10 | 0 | 0 | 0 | 0 | 0 | 89.1 | 107 | 94.2 | 93.8 | 98.6 | 101 | 91.2 | 99.3 | 102 | 103 | 96.4 | 98.5 | 94.2 | 94.8 | 99.5 | 104 | 101 | 97.3 | 100 | 101 | 106 | 96.9 | 101 | 101 | 128
C[C@@H]1O[C@@H](OC[C@H]2O[C@@H](Oc3c(-c4ccc(O)c(O)c4)oc4cc(O)cc(O)c4c3=O)[C@H](O)[C@@H](O)[C@@H]2O)[C@H](O)[C@H](O)[C@H]1O [rutin] | > 10 | > 10 | > 10 | > 10 | > 10 | 0 | 0 | 0 | 0 | 0 | 107 | 90.4 | 102 | 85.9 | 101 | 98.6 | 100 | 98.8 | 111 | 104 | 101 | 107 | 96.1 | 98.5 | 102 | 118 | 98.9 | 115 | 101 | 113 | 104 | 101 | 86 | 106 | 98.1
